Reference: paper PMC5796218 (International Journal of Molecular Sciences, 2018)
Where a name gives a salt, the structure may show the parent alone. Read-outs that look alike come from different tables or passages of the source.

Columns and labels:
[1] = biological target: MuOPR 38–51 peptide (mu opioid receptor) (Homo sapiens, UniProt P35372); assay: biochemical
[2] = biological target: MuOPR 111–122 peptide (mu opioid receptor) (Homo sapiens, UniProt P35372); assay: biochemical
[3] = biological target: MuOPR 121–131 peptide (mu opioid receptor) (Homo sapiens, UniProt P35372); assay: biochemical
[4] = biological target: MuOPR 132–143 peptide (mu opioid receptor) (Homo sapiens, UniProt P35372); assay: biochemical
[5] = biological target: MuOPR 211–226 peptide (mu opioid receptor) (Homo sapiens, UniProt P35372); assay: biochemical
muOPR peptides = muOPR peptides (Homo sapiens, UniProt P35372); type: binding
Method: (§1) Each of these receptor peptides were made into individual stock solutions with a concentration of 1 mg/mL in pH 7.40 phosphate buffered saline solution (Fischer Scientific, Hampton, NH, USA). For each individual test, the stock solution was diluted to 0.1 or 0.2 mg/mL solution. […] The adrenergic or compounds were made up at 1.0 mM solutions and then serially diluted by thirds eleven times using phosphate buffer.
(§2) After the solutions were made, a 96-well quartz crystal plate was prepared to be run through the spectrophotometer at room temperature (approximately 24 °C). […] The absorbance of each receptor peptide without the presence of the adrenergic compound was measured as well. The absorbance of each well was measured at every 10-nm increment from 190–260 nm. The maximum absorbance that can be measured was set to be 4. Each well had 200 μL of solution, so if the absorbance of one component was being measured, it was diluted by half with phosphate buffer.
(§3) If the measured absorbance is different than the additive absorbance of each compound, then that indicates some sort of molecular interaction. The binding can be quantified by graphing the difference in absorbance against the concentration of the compound varied to provide a binding curve. The absorbance for the phosphate buffer is subtracted for each well before any calculations are done. The data are analyzed by finding the additive absorbance, and plotting the difference between this absorbance and the actual absorbance against the concentration of the adrenergic compound. […] The binding constants were estimated from the half-saturation point at 200 nm since the absorbance differences tended to be maximized at this wavelength.

[6] = biological target: intact, purified human mu opioid receptor (muOPR) (Homo sapiens, UniProt P35372); assay: biochemical; conditions: for binding to intact muOPR (in words): UV spectra, serial additions in Tris buffer
Method: MuOPR expression was achieved using the muOPR transformed C43 (DE3) cell strain of E. coli in Terrific Broth medium as reported earlier with 0.4 mM isopropyl β-D-1-thiogalactopyranoside induction at 18 °C for 24 h. Bacterial cell cultures were harvested by centrifugation at 4000× g for 20 min. Periplasmic fraction from the harvested cells was removed by osmatic shock. Cells were resuspended in 7 mL of lysis buffer (20 mM Tris-HCl pH 8.0, 150 mM NaCl, 10% glycerol, 2 mM MgCl2, 10 μM E-64, 1 μM pepstatin-A, 10 μM leupeptin, 1 mM pefabloc SC, 2 mM β-Mercaptoethanol, 1 mg/mL lysozyme, 30 U/mL DNase) per gram of cell pellet and incubated on ice for 30 min with continuous stirring. […] The solubilized membrane sample was centrifuged at 100,000× g for 1 h at 4 °C and the supernatant was collected. Imidazole was added to the supernatant to a final concentration of 5 mM before starting purification using Ni-NTA resin in batch mode as reported. Eluted fractions with muOPR were pooled, concentrated and subjected to size exclusion chromatography (SEC) using HiLoad 16/600 Superdex 200 pg column (GE Healthcare Sciences, Berlin, Germany) equilibrated with 20 mM Tris pH 8, 150 mM NaCl, 0.1% Fos12, 10% Glycerol and 1 mM TCEP. SEC elution fractions were analyzed by SDS-PAGE and western blotting with Monoclonal Anti-polyHistidine-Peroxidase antibody (Sigma-Aldrich) for protein presence and purity before use.
The spectrum of the wells was then recorded from 190 to 260 nm using a Spectramax plus scanning spectrophotometer (Molecular Devices, San Jose, CA, USA) using SOFTMax PRO software (Molecular Devices, San Jose, CA, USA). The procedure described above was repeated an additional eleven times using compound dilutions of increasing concentration each time.
Data were analyzed in Excel. The raw spectra were processed by averaging the three runs of each condition and then subtracting the absorbance of the buffer alone at each volume. The triplicate data for each experimental condition were averaged. The compound + buffer data were subtracted from the muOPR + compound data at each volume to leave the spectrum of the muOPR under that experimental condition. […] Because the final calculations involve several subtractions, error bars […].

[7] = biological target: INSR 105–113 peptide (insulin receptor) (Homo sapiens, UniProt P06213); assay: biochemical
Method: as §1, §2, §3

[8] = biological target: INSR 157–166 peptide (insulin receptor) (Homo sapiens, UniProt P06213); assay: biochemical
Method: as §1, §2
(§4) If the measured absorbance is different than the additive absorbance of each compound, then that indicates some sort of molecular interaction. The binding can be quantified by graphing the difference in absorbance against the concentration of the compound varied to provide a binding curve. The absorbance for the phosphate buffer is subtracted for each well before any calculations are done. […]

[9] = biological target: B2AR 93–100 peptide (β-2-adrenergic receptor) (Homo sapiens, UniProt P07550); assay: biochemical
Method: as §1, §2, §3

[10] = biological target: B2AR 97–106 peptide (β-2-adrenergic receptor) (Homo sapiens, UniProt P07550); assay: biochemical
Method: as §1, §2, §3

[11] = biological target: B2AR 103–113 peptide (β-2-adrenergic receptor) (Homo sapiens, UniProt P07550); assay: biochemical
Method: as §1, §2, §4

[12] = biological target: B2AR 175–188 peptide (β-2-adrenergic receptor) (Homo sapiens, UniProt P07550); assay: biochemical
Method: as §1, §2, §3

[13] = biological target: D1DR 89–100 peptide (dopamine receptor D1) (Homo sapiens, UniProt P21728); assay: biochemical
[14] = biological target: D1DR 175–188 peptide (dopamine receptor D1) (Homo sapiens, UniProt P21728); assay: biochemical
[15] = biological target: HIST 77–87 peptide (histamine 1 receptor) (Homo sapiens, UniProt P35367); assay: biochemical
[16] = biological target: HIST 89–98 peptide (histamine 1 receptor) (Homo sapiens, UniProt P35367); assay: biochemical
[17] = biological target: HIST 96–107 peptide (histamine 1 receptor) (Homo sapiens, UniProt P35367); assay: biochemical
[18] = biological target: HIST 105–115 peptide (histamine 1 receptor) (Homo sapiens, UniProt P35367); assay: biochemical
[19] = biological target: HIST 166–172 peptide (histamine 1 receptor) (Homo sapiens, UniProt P35367); assay: biochemical
[20] = biological target: HIST 177–183 peptide (histamine 1 receptor) (Homo sapiens, UniProt P35367); assay: biochemical
[21] = biological target: Met-enkephalin (Homo sapiens); assay: UV spectroscopy; conditions: modification not given

muOPR peptides, sequence (P35372 with tags, fused parts or gaps): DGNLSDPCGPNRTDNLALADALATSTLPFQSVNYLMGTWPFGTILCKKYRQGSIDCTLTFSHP
intact, purified human mu opioid receptor (muOPR), sequence (P35372 whole entry): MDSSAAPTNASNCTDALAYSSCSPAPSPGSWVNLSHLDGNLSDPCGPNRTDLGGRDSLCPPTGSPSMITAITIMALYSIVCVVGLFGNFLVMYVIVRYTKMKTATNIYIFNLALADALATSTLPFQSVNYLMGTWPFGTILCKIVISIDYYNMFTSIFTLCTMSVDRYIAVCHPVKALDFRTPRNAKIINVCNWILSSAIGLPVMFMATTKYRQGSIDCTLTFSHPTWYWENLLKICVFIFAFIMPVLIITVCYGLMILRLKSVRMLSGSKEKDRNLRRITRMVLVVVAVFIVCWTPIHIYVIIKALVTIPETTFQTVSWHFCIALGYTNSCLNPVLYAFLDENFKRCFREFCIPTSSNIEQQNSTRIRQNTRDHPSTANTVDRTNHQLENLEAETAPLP

Q: With NCCc1c[nH]c2ccc(O)cc12 [5HT, 5-hydroxytryptamine] as the molecule, how does the Kd [1] read?
A: The Kd was 100 µM.

Q: And the Kd [2]?
A: Its Kd is 0.1 mM.

Q: And the Kd [3]?
A: Its Kd is 0.35 mM.

Q: What about the Kd [4] of the same molecule?
A: Its Kd is 100 µM.

Q: And the Kd [5]?
A: Its Kd is 0.09 mM.

Q: CC(=O)OCC[N+](C)(C)C [ACh, acetylcholine] was tested. Which “binding to the muOPR peptides (in words)” value (muOPR peptides; UV spectroscopy) did it give?
A: Its value is “no measurable binding”.

Q: What about the Kd [6] of the same molecule?
A: The Kd was over 1000 µM.

Q: What about the Kd ([6]; Kd @ 210 nm (μM), 210 nm) of the same molecule?
A: The Kd was over 1000 µM.

Q: What about the “binding to intact muOPR (in words)” value [6] of the same molecule?
A: The value was “No significant binding”.

Q: What about the Kd [1] of the same molecule?
A: The Kd was over 1000 µM.

Q: What about the Kd [2] of the same molecule?
A: The Kd was over 1 mM.

Q: What about the Kd [3] of the same molecule?
A: Its Kd is over 1 mM.

Q: And the Kd [4]?
A: The Kd was over 1000 µM.

Q: And the Kd [5]?
A: The Kd was over 1 mM.

Q: With O=C1O[C@H]([C@@H](O)CO)C(O)=C1O [ASC, ascorbic acid] as the molecule, how does the “binding to the muOPR peptides (in words)” value (muOPR peptides; UV spectroscopy) read?
A: Its value is “did not bind”.

Q: And the “binding to intact muOPR (in words)” value [6]?
A: The value was “No significant binding”.

Q: Which “binding to the muOPR peptides (in words)” value (muOPR peptides) does the source give for NCCc1ccc(O)c(O)c1 [DOP, dopamine] here?
A: Its value is “only displayed the low affinity binding”.

Q: With O=C(O)CN(CCN(CC(=O)O)CC(=O)O)CC(=O)O [EDTA, ethylenediaminetetraacetic acid] as the molecule, how does the Kd [7] read?
A: The Kd was over 1000 µM.

Q: And the Kd [8]?
A: The Kd was over 1000 µM.

Q: With OC[C@H]1OC(O)[C@H](O)[C@@H](O)[C@@H]1O (some centres unmarked) [GLUC, glucose] as the molecule, how does the Kd [1] read?
A: The Kd was over 1000 µM.

Q: What about the Kd [2] of the same molecule?
A: Its Kd is over 1 mM.

Q: What about the Kd [3] of the same molecule?
A: Its Kd is over 1 mM.

Q: And the Kd [4]?
A: Its Kd is over 1000 µM.

Q: And the Kd [5]?
A: The Kd was over 1 mM.

Q: What about the Kd [9] of the same molecule?
A: The Kd was over 1000 µM.

Q: What about the Kd [10] of the same molecule?
A: The Kd was over 1000 µM.

Q: What about the Kd [11] of the same molecule?
A: The Kd was over 1000 µM.

Q: And the Kd [12]?
A: The Kd was over 1000 µM.

Q: And the Kd [13]?
A: Its Kd is over 1000 µM.

Q: What about the Kd [14] of the same molecule?
A: Its Kd is over 1000 µM.

Q: What about the Kd [15] of the same molecule?
A: Its Kd is over 1 mM.

Q: And the Kd [16]?
A: Its Kd is over 1000 µM.

Q: And the Kd [17]?
A: The Kd was over 1000 µM.

Q: And the Kd [18]?
A: Its Kd is over 1000 µM.

Q: And the Kd [19]?
A: Its Kd is over 1 mM.

Q: What about the Kd [20] of the same molecule?
A: Its Kd is over 1 mM.

Q: How did the “binding to the muOPR peptides (in words)” value (muOPR peptides) turn out when NCCc1c[nH]cn1 [Hist, histamine] was run?
A: The value was “no measurable binding”.

Q: For CN1CC[C@]23c4c5ccc(O)c4O[C@H]2[C@@H](O)C=C[C@H]3[C@H]1C5 [Morph, morphine sulfate], which Kd [13] is on record?
A: Its Kd is 20 µM.

Q: What about the Kd [14] of the same molecule?
A: Its Kd is 10 µM.

Q: How did the Kd [9] turn out when C=CCN1CC[C@]23c4c5ccc(O)c4O[C@H]2C(=O)CC[C@@]3(O)[C@H]1C5 [Nalox, naloxone] was run?
A: The Kd was 5 µM.

Q: And the Kd [10]?
A: The Kd was 6 µM.

Q: What about the Kd [11] of the same molecule?
A: Its Kd is 3 µM.

Q: And the Kd [12]?
A: The Kd was 40 µM.

Q: And the Kd [13]?
A: The Kd was 5 µM.

Q: And the Kd [14]?
A: The Kd was 20 µM.

Q: What about the Kd [7] of the same molecule?
A: The Kd was 20 µM.

Q: And the Kd [8]?
A: Its Kd is 200 µM.

Q: Cc1cc2nc3c(=O)[nH]c(=O)nc-3n(C[C@H](O)[C@H](O)[C@H](O)CO)c2cc1C [RIBO, riboflavin] was tested. Which Kd [1] did it give?
A: The Kd was 50 µM.

Q: And the Kd [2]?
A: Its Kd is over 1 mM.

Q: What about the Kd [3] of the same molecule?
A: The Kd was over 1 mM.

Q: And the Kd [4]?
A: Its Kd is 100 µM.

Q: And the Kd [5]?
A: Its Kd is over 1 mM.

Q: What about the Kd [9] of the same molecule?
A: The Kd was 400 µM.

Q: What about the Kd [10] of the same molecule?
A: Its Kd is 600 µM.

Q: What about the Kd [12] of the same molecule?
A: The Kd was 500 µM.

Q: And the Kd [13]?
A: The Kd was 600 µM.

Q: And the Kd [14]?
A: The Kd was 300 µM.

Q: What about the Kd [15] of the same molecule?
A: Its Kd is over 1 mM.

Q: And the Kd [16]?
A: Its Kd is 400 µM.

Q: What about the Kd [17] of the same molecule?
A: Its Kd is 500 µM.

Q: What about the Kd [18] of the same molecule?
A: The Kd was 450 µM.

Q: And the Kd [7]?
A: Its Kd is 500 µM.

B1: mu opioid receptor (peptide)
chain: KYRQGSIDCTLTFSHP
Q: Which Kd [21] does the source give for B1 here?
A: Its Kd is 1 µM.

B2: mu opioid receptor (peptide)
chain: NLALADALATST
Q: Which Kd [21] does the source give for B2 here?
A: Its Kd is 80 µM.

B3: mu opioid receptor (peptide)
chain: TLPFQSVNYL
Q: Which Kd [21] does the source give for B3 here?
A: The Kd was 90 µM.
